Biological target: T1, ALAS2 (apoALAS2) (Homo sapiens, UniProt P22557)
T1 sequence (P22557 50-587): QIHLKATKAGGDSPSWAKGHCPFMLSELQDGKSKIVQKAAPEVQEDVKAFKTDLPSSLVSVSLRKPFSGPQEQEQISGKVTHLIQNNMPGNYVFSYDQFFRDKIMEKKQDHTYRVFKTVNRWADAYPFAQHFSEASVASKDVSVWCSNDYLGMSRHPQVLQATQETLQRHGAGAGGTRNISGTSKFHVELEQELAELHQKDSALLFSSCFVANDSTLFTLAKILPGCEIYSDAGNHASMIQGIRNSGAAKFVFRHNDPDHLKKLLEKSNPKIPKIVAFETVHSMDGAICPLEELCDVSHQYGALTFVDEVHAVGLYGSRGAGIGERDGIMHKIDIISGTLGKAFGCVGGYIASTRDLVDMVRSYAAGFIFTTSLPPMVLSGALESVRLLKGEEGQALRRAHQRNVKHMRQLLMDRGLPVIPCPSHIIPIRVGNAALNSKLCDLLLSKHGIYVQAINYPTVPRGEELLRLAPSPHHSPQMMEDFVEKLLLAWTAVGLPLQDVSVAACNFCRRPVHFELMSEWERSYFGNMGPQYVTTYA
Assay: PLP reactivation of apoenzyme, NAD-coupled ALAS assay
Assay type: biochemical
Conditions: apoALAS2 5 µM, PLP 50 µM, pH 7.6, 30 °C, 5 mM MgCl2, 130 mM KCl, 0.75 mg/ml BSA; covalent

## Cc1ncc(COP(=O)(O)O)c(C=O)c1O [pyridoxal phosphate]
  PLP reactivation of apoenzyme, NAD-coupled ALAS assay: apoALAS2 activation by PLP in vitro.

Reference: paper PMC4467794 (Cell, 2015)
